The values that follow come from patent US4760088A, “Biocidal derivatives of catechins” (Board of Control of Michigan Technological University, priority 1986, dated 1988).

Common to all, as to type: cell-based
One assay relates to Coriolus versicolor. The assay can be described thus: Biocidal effect on wood-destroying fungi, white-rotters (agar plate mycelium growth). The settings on record: Trametes versicolor; no growth observed; malt extract agar, 26° C.; max. tested 1000 ppm; read-out: Minimum Inhibitory Concentration (MIC). The protocol:
(§1) Tests were made to determine the biocidal properties of the epicatechin-4-alkylsulfides prepared in Examples 1 and 2 on different wood-rotting fungi and bacteria.
(§2) Agar plates containing the epicatechin-4-alkylsulfide to be tested were prepared by adding one part of an ethanol solution containing a known concentration of the test compound to 99 parts of molten malt extract agar. After thorough mixing, the medium was poured into 8 cm petri dishes. When the agar had cooled and hardened, the plates were inoculated by placing in the center of the plate a 5 mm diameter plug taken from an agar plate containing an actively growing culture of the test organism and incubated at 26° C. The diameter of the mycelium formed was measured when the culture on a control plate (containing no test compound) had reached the perimeter of the petri dish, or after seven days, whichever came first. Three duplicates were run for each test compound/test organism combination.

Assay [1] has as its system Phanerochaete chrysosporium. The description is as above. The settings on record: Phanerodontia chrysosporium; no growth observed; malt extract agar, 26° C.; max. tested 1000 ppm; read-out: Minimum Inhibitory Concentration (MIC). The protocol:
as §1, §2

A further assay concerns Pycnoporus cinnabarinus. Described as above. Conditions: Trametes cinnabarina; no growth observed; malt extract agar, 26° C.; max. tested 1000 ppm; read-out: Minimum Inhibitory Concentration (MIC). The protocol: as §1, §2
The test system of the next assay is Geophyllum trabeum. Description: Biocidal effect on wood-destroying fungi, brown-rotters (agar plate mycelium growth). The settings on record: no growth observed; malt extract agar, 26° C.; max. tested 1000 ppm; read-out: Minimum Inhibitory Concentration (MIC). The protocol:
as §1, §2

A further assay concerns Poria placenta. Described as above. The settings on record: no growth observed; malt extract agar, 26° C.; max. tested 1000 ppm; read-out: Minimum Inhibitory Concentration (MIC). The protocol: as §1, §2
For another assay, the system named is Wolfiporia cocos. The description is as above. The settings on record: no growth observed, malt extract agar, 26° C., max. tested 1000 ppm, read-out: Minimum Inhibitory Concentration (MIC). As to the method:
as §1, §2

The next assay relates to Chaetomium globosom. Description: Biocidal effect on wood-destroying fungi, soft-rotters (agar plate mycelium growth). Conditions: no growth observed, malt extract agar, 26° C., max. tested 1000 ppm, read-out: Minimum Inhibitory Concentration (MIC). As to the method: as §1, §2
Another assay deals with Lecythophora hoffmannii. Described as above. The settings on record: Coniochaeta hoffmannii; no growth observed; malt extract agar, 26° C.; max. tested 1000 ppm; read-out: Minimum Inhibitory Concentration (MIC). The protocol:
as §1, §2

A further assay deals with Scytalidium lignicola. Described as above. Conditions: no growth observed, malt extract agar, 26° C., max. tested 1000 ppm, read-out: Minimum Inhibitory Concentration (MIC). As to the method:
as §1, §2

For the next assay, the system named is Enterobacter cloacae. Description: Biocidal effect on bacteria, gram-negative (agar plate). Conditions: 24 h, read-out: Minimum Inhibitory Concentration (MIC). The protocol:
as §1
(§3) Agar plates containing the test compounds were made as above, but with brain-heart infusion agar. The plates were inoculated with a standardized suspension of bacterial cells using a calibrated 3 mm loop and incubated at 35° C. After one day (two days for Micrococcus luteus), the number of resulting bacteria cultures were counted. Streptomycin was used under the same conditions on each test organism for a comparison.

A further assay has as its system Escherchia coli. The assay is described as above. Conditions: 24 h; no colonies observed; brain-heart infusion agar, 35° C., one day; max. tested 500 ppm; read-out: Minimum Inhibitory Concentration (MIC). The protocol: as §1, §3
The test system of another assay is Klebsiella pneumoneae. The assay is described as above. Conditions: 24 h, read-out: Minimum Inhibitory Concentration (MIC). The protocol: as §1, §3
A further assay deals with Pseudomonas aeruginosa. Described as above. Conditions: 24 h, read-out: Minimum Inhibitory Concentration (MIC). As to the method:
as §1, §3

The test system of another assay is Bacillus cereus. Description: Biocidal effect on bacteria, gram-positive (agar plate). Conditions: 24 h, read-out: Minimum Inhibitory Concentration (MIC). As to the method:
as §1, §3

Another assay relates to Micrococcus liteus. Described as above. The settings on record: 48 h, read-out: Minimum Inhibitory Concentration (MIC). The protocol:
as §1, §3

The next assay has as its system Streptococcus faciens. Described as above. The settings on record: 24 h, read-out: Minimum Inhibitory Concentration (MIC). The protocol: as §1, §3
For the next assay, the system named is fungi. Description: Fungicidal effect against a variety of fungi (overall statement). The settings on record: at the concentrations tested. The protocol:
as §1, §2

The next assay concerns gram-positive bacteria. The assay can be described thus: Effect against gram-positive bacteria compared with streptomycin (overall statement). The settings on record: versus streptomycin under the same conditions. The protocol:
as §1, §3

A further assay deals with bacteria. The assay can be described thus: Bactericidal effect (overall statement). The settings on record: at the concentrations tested. The protocol:
as §1, §3

Where [2] appears, read: no colonies observed, brain-heart infusion agar, 35° C., one day, max. tested 500 ppm.
[3] abbreviates: no colonies observed, brain-heart infusion agar, 35° C., two days, max. tested 500 ppm.

≈ marks a conversion by molar mass, not a printed value. Read-outs that look alike come from different tables or passages of the source.

On to `CCCCCCSC1c2c(O)cc(O)cc2OC(c2ccc(O)c(O)c2)C1O` (stereo not shown) [C6], for which the MIC in the assay on Coriolus versicolor was 800 µg/mL; in assay [1] it was 250 µg/mL; in the assay on Pycnoporus cinnabarinus, 500 µg/mL; with Geophyllum trabeum, 1000 µg/mL; in the assay on Poria placenta, 500 µg/mL; in the assay on Wolfiporia cocos it was 500 µg/mL. Further, the MIC with Chaetomium globosom was determined as 500 µg/mL; with Lecythophora hoffmannii, 800 µg/mL; in the assay with Scytalidium lignicola, 80 µg/mL; in the assay with Enterobacter cloacae (setting [2]) it was 300 µg/mL (≈ 738 µM); in the assay on Escherchia coli, 300 µg/mL (≈ 738 µM); in the assay with Klebsiella pneumoneae (setting [2]), 500 µg/mL (≈ 1230 µM). The MIC in the assay on Pseudomonas aeruginosa (setting [2]) turned out to be 500 µg/mL (≈ 1230 µM); in the assay on Bacillus cereus (setting [2]), 80 µg/mL (≈ 197 µM); in the assay with Micrococcus liteus (setting [3]), 50 µg/mL (≈ 123 µM); in the assay with Streptococcus faciens (setting [2]) it was 200 µg/mL (≈ 492 µM).
Regarding `CCCCCCCCSC1c2c(O)cc(O)cc2OC(c2ccc(O)c(O)c2)C1O` (stereo not shown) [C8], the MIC came to 250 µg/mL in the assay with Coriolus versicolor; 100 µg/mL in assay [1]; 1000 µg/mL in the assay on Pycnoporus cinnabarinus; 1000 µg/mL in the assay with Geophyllum trabeum; 250 µg/mL in the assay on Poria placenta; 1000 µg/mL with Wolfiporia cocos. Also, the MIC with Chaetomium globosom was found to be 1000 µg/mL; with Lecythophora hoffmannii it was 400 µg/mL; with Scytalidium lignicola it was 25 µg/mL; in the assay on Escherchia coli, 500 µg/mL (≈ 1150 µM); in the assay on Klebsiella pneumoneae (setting [2]), 500 µg/mL (≈ 1150 µM); in the assay with Bacillus cereus (setting [2]), 20 µg/mL (≈ 46 µM). Also, the MIC in the assay with Micrococcus liteus (setting [3]) was 40 µg/mL (≈ 92 µM); in the assay on Streptococcus faciens (setting [2]) it was 60 µg/mL (≈ 138 µM). For the same compound, in the assay with fungi, the fungicidal properties entry was “effective fungicide”.
Regarding `CCCCCCCCCCSC1c2c(O)cc(O)cc2OC(c2ccc(O)c(O)c2)C1O` (stereo not shown) [C10], the MIC in the assay with Coriolus versicolor was 200 µg/mL; in assay [1], 50 µg/mL; in the assay on Geophyllum trabeum it was 1000 µg/mL; with Poria placenta, 1000 µg/mL; in the assay with Lecythophora hoffmannii, 300 µg/mL; with Scytalidium lignicola it was 8 µg/mL. The MIC with Enterobacter cloacae (setting [2]) is 500 µg/mL (≈ 1080 µM); in the assay on Escherchia coli, 500 µg/mL (≈ 1080 µM); in the assay on Klebsiella pneumoneae (setting [2]), 500 µg/mL (≈ 1080 µM); in the assay on Pseudomonas aeruginosa (setting [2]), 300 µg/mL (≈ 648 µM); in the assay with Bacillus cereus (setting [2]) it was 5 µg/mL (≈ 10.8 µM); in the assay with Micrococcus liteus (setting [3]), 5 µg/mL (≈ 10.8 µM). Moreover, the MIC in the assay on Streptococcus faciens (setting [2]) was 30 µg/mL (≈ 64.8 µM). For the same compound, the fungicidal properties result in the assay on fungi is “effective fungicide”. Further, in the assay with gram-positive bacteria, the “effectiveness against gram-positive bacteria compared with streptomycin” value was “substantially more effective”.
In the case of `CCCCCCCCCCCCSC1c2c(O)cc(O)cc2OC(c2ccc(O)c(O)c2)C1O` (stereo not shown) [C12], the MIC (in the assay with Coriolus versicolor; in [1]; in the assay with Pycnoporus cinnabarinus; in the assay on Geophyllum trabeum; with Poria placenta; in the assay with Wolfiporia cocos) was 1000 µg/mL throughout. Further, the MIC was 1000 µg/mL with Chaetomium globosom; 1000 µg/mL in the assay on Lecythophora hoffmannii; 100 µg/mL with Scytalidium lignicola; 500 µg/mL (≈ 1020 µM) with Escherchia coli; 500 µg/mL (≈ 1020 µM) in the assay on Klebsiella pneumoneae (setting [2]); 50 µg/mL (≈ 102 µM) in the assay with Bacillus cereus (setting [2]). Further, the MIC in the assay on Micrococcus liteus (setting [3]) came to 50 µg/mL (≈ 102 µM); with Streptococcus faciens (setting [2]), 75 µg/mL (≈ 153 µM).
With `CCCCCCCCCCCCCCCCSC1c2c(O)cc(O)cc2OC(c2ccc(O)c(O)c2)C1O` (stereo not shown) [C16], the MIC with Coriolus versicolor came to 1000 µg/mL; in assay [1], 1000 µg/mL; in the assay with Geophyllum trabeum, 1000 µg/mL; in the assay with Poria placenta, 1000 µg/mL; in the assay on Lecythophora hoffmannii, 1000 µg/mL; with Scytalidium lignicola, 200 µg/mL. For the same compound, the MIC in the assay with Enterobacter cloacae (setting [2]) amounted to 500 µg/mL (≈ 914 µM); with Escherchia coli, 500 µg/mL (≈ 914 µM); in the assay with Klebsiella pneumoneae (setting [2]) it was 500 µg/mL (≈ 914 µM); with Pseudomonas aeruginosa (setting [2]) it was 50 µg/mL (≈ 91.4 µM); with Bacillus cereus (setting [2]), 75 µg/mL (≈ 137 µM); with Micrococcus liteus (setting [3]) it was 75 µg/mL (≈ 137 µM). Besides, the MIC in the assay on Streptococcus faciens (setting [2]) was 100 µg/mL (≈ 183 µM).
Regarding `Oc1cc(O)c2c(c1)O[C@H](c1ccc(O)c(O)c1)[C@H](O)C2` [Epicatechin, reference compound], the fungicidal properties result with fungi is listed as “no fungicidal”. For the same compound, in the assay on bacteria, the bactericidal properties result is listed as “minimal bactericidal properties”.
On to `[H]/N=C(/N)N[C@H]1[C@H](O)[C@@H](O)[C@H](O[C@@H]2O[C@@H](C)[C@](O)(C=O)[C@H]2O[C@@H]2O[C@@H](CO)[C@H](O)[C@@H](O)[C@@H]2NC)[C@@H](N/C(N)=N\[H])[C@@H]1O` [Strep, Streptomycin, reference compound], for which the MIC in the assay on Enterobacter cloacae amounted to 1 µg/mL (≈ 1.72 µM); with Escherchia coli it was 5 µg/mL (≈ 8.6 µM); in the assay on Klebsiella pneumoneae, 8 µg/mL (≈ 13.8 µM); in the assay with Pseudomonas aeruginosa, 50 µg/mL (≈ 86 µM); in the assay on Bacillus cereus, 20 µg/mL (≈ 34.4 µM); in the assay with Micrococcus liteus, 8 µg/mL (≈ 13.8 µM). For the same compound, the MIC in the assay on Streptococcus faciens amounted to 50 µg/mL (≈ 86 µM).
